Experimental data: PubChem BioAssay (NCI)
“And” between values parts separate entries of the source, which are not always exact repeats. Equal values may be shown once.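 Briefly, cells in 96-well plates were exposed to five compound concentrations for 48 h, and endpoints were estimated by linear interpolation. GI50 = concentration required for 50% inhibition of growth. Definition used: TGI = concentration required for complete inhibition of growth.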

How the values were obtained:
Test in all cases: DTP human tumour cell line panel, 48 h
786-0 renal = test system: 786-0 renal
A498 renal = test system: A498 renal
A549 NSCLC = test system: A549 NSCLC
ACHN renal = test system: ACHN renal
BT-549 breast = test system: BT-549 breast
CAKI-1 renal = test system: CAKI-1 renal
CCRF-CEM leukemia = test system: CCRF-CEM leukemia
COLO 205 colon = test system: COLO 205 colon
DU-145 prostate = test system: DU-145 prostate
EKVX NSCLC = test system: EKVX NSCLC
HCC-2998 colon = test system: HCC-2998 colon
HCT-116 colon = test system: HCT-116 colon
HCT-15 colon = test system: HCT-15 colon
HL-60(TB) leukemia = test system: HL-60(TB) leukemia
HOP-62 NSCLC = test system: HOP-62 NSCLC
HOP-92 NSCLC = test system: HOP-92 NSCLC
HS 578T breast = test system: HS 578T breast
HT29 colon = test system: HT29 colon
IGROV1 ovarian = test system: IGROV1 ovarian
K-562 leukemia = test system: K-562 leukemia
KM12 colon = test system: KM12 colon
LOX IMVI melanoma = test system: LOX IMVI melanoma
M14 melanoma = test system: M14 melanoma
MALME-3M melanoma = test system: MALME-3M melanoma
MCF7 breast = test system: MCF7 breast
MDA-MB-231 breast = test system: MDA-MB-231 breast
MDA-MB-435 = test system: MDA-MB-435
MOLT-4 leukemia = test system: MOLT-4 leukemia
NCI-H226 lung = test system: NCI-H226 lung
NCI-H23 lung = test system: NCI-H23 lung
NCI-H460 lung = test system: NCI-H460 lung
NCI-H522 lung = test system: NCI-H522 lung
NCI/ADR-RES ovarian = test system: NCI/ADR-RES ovarian
OVCAR-3 ovarian = test system: OVCAR-3 ovarian
OVCAR-4 ovarian = test system: OVCAR-4 ovarian
OVCAR-5 ovarian = test system: OVCAR-5 ovarian
OVCAR-8 ovarian = test system: OVCAR-8 ovarian
PC-3 prostate = test system: PC-3 prostate
RPMI-8226 leukemia = test system: RPMI-8226 leukemia
RXF 393 renal = test system: RXF 393 renal
SF-268 CNS = test system: SF-268 CNS
SF-295 CNS = test system: SF-295 CNS
SF-539 CNS = test system: SF-539 CNS
SK-MEL-2 melanoma = test system: SK-MEL-2 melanoma
SK-MEL-28 melanoma = test system: SK-MEL-28 melanoma
SK-MEL-5 melanoma = test system: SK-MEL-5 melanoma
SK-OV-3 ovarian = test system: SK-OV-3 ovarian
SN12C renal = test system: SN12C renal
SNB-19 CNS = test system: SNB-19 CNS
SNB-75 CNS = test system: SNB-75 CNS
SR leukemia = test system: SR leukemia
SW-620 colon = test system: SW-620 colon
T-47D breast = test system: T-47D breast
TK-10 renal = test system: TK-10 renal
U251 CNS = test system: U251 CNS
UACC-257 melanoma = test system: UACC-257 melanoma
UACC-62 melanoma = test system: UACC-62 melanoma
UO-31 renal = test system: UO-31 renal

For `CCC[C@H](N[C@H]1CCc2cc(F)cc(F)c2C1)C(=O)Nc1cn(C(C)(C)CNCC(C)(C)C)cn1`, the GI50 (786-0 renal) was 14.2 µM and 32.5 µM, the TGI (786-0 renal) was 49.8 µM and > 100 µM and the GI50 (A498 renal) was 3.85 µM and 19.2 µM. For the same compound, the TGI (A498 renal) was > 48.1 µM and 87.8 µM, the GI50 (A549 NSCLC) was 23.1 µM and 21.5 µM and the TGI (A549 NSCLC) was over 100 µM. For the same compound, the GI50 (ACHN renal) was 26.3 µM and 23.2 µM, the TGI (ACHN renal) was over 100 µM and the GI50 (BT-549 breast) was 14.9 µM and 21 µM. For the same compound, the TGI (BT-549 breast) was 72.2 µM and 86.2 µM, the GI50 (CAKI-1 renal) was 7.69 µM and 4.75 µM and the TGI (CAKI-1 renal) was > 47.6 µM and 42.9 µM. For the same compound, the GI50 (CCRF-CEM leukemia) was 24.5 µM and 20.7 µM, the TGI (CCRF-CEM leukemia) was over 100 µM and the GI50 (COLO 205 colon) was 14 µM and 14.4 µM. For the same compound, the TGI (COLO 205 colon) was 28.6 µM and 29.1 µM, the GI50 (DU-145 prostate) was 34.8 µM and 35.9 µM and the TGI (DU-145 prostate) was over 100 µM. For the same compound, the GI50 (EKVX NSCLC) was 24.2 µM and 21.3 µM, the TGI (EKVX NSCLC) was over 100 µM and the GI50 (HCC-2998 colon) was 22.3 µM and 24.9 µM. For the same compound, the TGI (HCC-2998 colon) was over 100 µM, the GI50 (HCT-116 colon) was 7.27 µM and 10.9 µM and the TGI (HCT-116 colon) was 23.3 µM and 28.6 µM. For the same compound, the GI50 (HCT-15 colon) was 20.1 µM and 16.3 µM, the TGI (HCT-15 colon) was over 100 µM and the GI50 (HL-60(TB) leukemia) was 13.9 µM and 22.4 µM. For the same compound, the TGI (HL-60(TB) leukemia) was 43.3 µM and > 100 µM, the GI50 (HOP-62 NSCLC) was 33.3 µM and 53.3 µM and the TGI (HOP-62 NSCLC) was over 100 µM. The GI50 (HOP-92 NSCLC) was 5.6 µM and 2.52 µM, the TGI (HOP-92 NSCLC) was 40.1 µM and 27.2 µM and the GI50 (HS 578T breast) was 16.3 µM and 13.1 µM. For the same compound, the TGI (HS 578T breast) was > 100 µM and 93.5 µM, the GI50 (HT29 colon) was 10.4 µM and 11.9 µM and the TGI (HT29 colon) was 29.5 µM and 28.8 µM. The GI50 (IGROV1 ovarian) was 42.6 µM and 31.5 µM, the TGI (IGROV1 ovarian) was over 100 µM and the GI50 (K-562 leukemia) was 5.6 µM and 12.1 µM. The TGI (K-562 leukemia) was over 100 µM, the GI50 (KM12 colon) was 26.9 µM and 27 µM and the TGI (KM12 colon) was over 100 µM. The GI50 (LOX IMVI melanoma) was 15.5 µM and 16.1 µM, the TGI (LOX IMVI melanoma) was 34.3 µM and 35.9 µM and the GI50 (M14 melanoma) was 13.8 µM and 14.8 µM. For the same compound, the TGI (M14 melanoma) was 41.2 µM and 46.6 µM, the GI50 (MALME-3M melanoma) was 11 µM and 12.9 µM and the TGI (MALME-3M melanoma) was 28.5 µM and 29.5 µM. For the same compound, the GI50 (MCF7 breast) was 16.3 µM and 11.7 µM, the TGI (MCF7 breast) was > 64.4 µM and 83.7 µM and the GI50 (MDA-MB-231 breast) was 15.3 µM and 12.9 µM. For the same compound, the TGI (MDA-MB-231 breast) was 45.3 µM and 41.2 µM, the GI50 (MDA-MB-435) was 21.3 µM and 21.5 µM and the TGI (MDA-MB-435) was over 100 µM. For the same compound, the GI50 (MOLT-4 leukemia) was 6.93 µM and 7.84 µM, the TGI (MOLT-4 leukemia) was over 100 µM and the GI50 (NCI-H226 lung) was 26.5 µM and 14.1 µM. The TGI (NCI-H226 lung) was > 100 µM and 92.9 µM, the GI50 (NCI-H23 lung) was 24.1 µM and 22.4 µM and the TGI (NCI-H23 lung) was over 100 µM. For the same compound, the GI50 (NCI-H460 lung) was 25.3 µM and 21.6 µM, the TGI (NCI-H460 lung) was over 100 µM and the GI50 (NCI-H522 lung) was 23.9 µM and 13.4 µM. The TGI (NCI-H522 lung) was > 100 µM and 69.6 µM, the GI50 (NCI/ADR-RES ovarian) was 17.2 µM and 20.6 µM and the TGI (NCI/ADR-RES ovarian) was over 100 µM. The GI50 (OVCAR-3 ovarian) was 19.9 µM and 16.6 µM, the TGI (OVCAR-3 ovarian) was > 100 µM and 77.6 µM and the GI50 (OVCAR-4 ovarian) was 23.6 µM and 16.1 µM. The TGI (OVCAR-4 ovarian) was over 100 µM, the GI50 (OVCAR-5 ovarian) was 27 µM and 22.6 µM and the TGI (OVCAR-5 ovarian) was over 100 µM. For the same compound, the GI50 (OVCAR-8 ovarian) was 31.7 µM and 26 µM, the TGI (OVCAR-8 ovarian) was over 100 µM and the GI50 (PC-3 prostate) was 10.9 µM and 12.4 µM. For the same compound, the TGI (PC-3 prostate) was over 100 µM, the GI50 (RPMI-8226 leukemia) was 9.57 µM and 11 µM and the TGI (RPMI-8226 leukemia) was 48.8 µM and 69 µM. For the same compound, the TGI (RXF 393 renal) was 39.9 µM and 13.4 µM, the GI50 (SF-268 CNS) was 21.8 µM and 16.5 µM and the TGI (SF-268 CNS) was over 100 µM. The GI50 (SF-295 CNS) was 23.6 µM and 18.5 µM, the TGI (SF-295 CNS) was over 100 µM and the GI50 (SF-539 CNS) was 19 µM and 27.8 µM. The TGI (SF-539 CNS) was 47.3 µM and > 100 µM, the GI50 (SK-MEL-2 melanoma) was 16.8 µM and 15.1 µM and the TGI (SK-MEL-2 melanoma) was 42 µM and 37.2 µM. For the same compound, the GI50 (SK-MEL-28 melanoma) was 19 µM and 18 µM, the TGI (SK-MEL-28 melanoma) was 52.9 µM and 54.8 µM and the GI50 (SK-MEL-5 melanoma) was 15.2 µM and 13 µM. For the same compound, the TGI (SK-MEL-5 melanoma) was 29.6 µM and 26.2 µM, the GI50 (SK-OV-3 ovarian) was 37.2 µM and 40.3 µM and the TGI (SK-OV-3 ovarian) was over 100 µM. The GI50 (SN12C renal) was 28.6 µM and 17.5 µM, the TGI (SN12C renal) was over 100 µM and the GI50 (SNB-19 CNS) was 35.2 µM and 29.7 µM. The TGI (SNB-19 CNS) was over 100 µM, the GI50 (SNB-75 CNS) was 18.2 µM and 13.8 µM and the TGI (SNB-75 CNS) was over 100 µM. For the same compound, the GI50 (SR leukemia) was 19.3 µM and 14 µM, the TGI (SR leukemia) was > 100 µM and 91.1 µM and the GI50 (SW-620 colon) was 23.7 µM and 23.3 µM. For the same compound, the TGI (SW-620 colon) was over 100 µM, the GI50 (T-47D breast) was 9.83 µM and 14.2 µM and the TGI (T-47D breast) was over 100 µM. The GI50 (TK-10 renal) was 25.1 µM and 28.9 µM, the TGI (TK-10 renal) was over 100 µM and the GI50 (U251 CNS) was 17.6 µM and 19.3 µM. The TGI (U251 CNS) was over 100 µM, the GI50 (UACC-257 melanoma) was 13.7 µM and 12.9 µM and the TGI (UACC-257 melanoma) was 61.9 µM and 40.4 µM. The GI50 (UACC-62 melanoma) was 16.8 µM, the TGI (UACC-62 melanoma) was 45.8 µM and the GI50 (UO-31 renal) was 5.72 µM and 4.1 µM. For the same compound, the TGI (UO-31 renal) was 30 µM and 27.7 µM.
